One may read the MIC50 as the lowest concentration that inhibits either 50% of growth or 50% of the strains tested, depending on the study. High values mean weaker potency, low ones greater potency. The MIC90 is the lowest concentration that inhibits either 90% of growth or 90% of the strains tested, depending on the study. High values mean weaker potency, low ones greater potency. A word on the MIC: it is the lowest concentration found to suppress growth.

≈ marks a conversion by molar mass, not a printed value.

MIC50, MIC90 and MIC data for 10 compounds are collected here from ChEMBL document CHEMBL1649263, “In vitro activity of a new quinoline derivative, ER-2, against clinical isolates of Mycoplasma pneumoniae and Mycoplasma hominis” (2009).

In test [1] the test system is Metamycoplasma hominis. Briefly: Antimicrobial activity against Mycoplasma hominis by agar dilution method. The format is functional. (In general: Agar dilution tests growth on a series of plates holding different concentrations.)
Test [2] has as its system Mycoplasmoides pneumoniae. Briefly: Antimicrobial activity against Mycoplasma pneumoniae by agar dilution method. The format is functional.

Consider `CN1C(=O)C2CC3C4Nc5ccc(Cl)cc5C(C)(C)C4CN3C2N(C)C1=O` (stereo not given), for which, in test [1], the MIC50 stood at 0.032 µg/mL (≈ 0.0823 µM) and the MIC90 is 0.06 µg/mL (≈ 0.154 µM). Further, in test [2], the lowest concentration to inhibit growth (MIC) was 0.001 µg/mL (≈ 0.00257 µM), the MIC50 worked out at 0.001 µg/mL (≈ 0.00257 µM) and the MIC90 is 0.016 µg/mL (≈ 0.0411 µM).
As for `CC[C@H]1OC(=O)[C@H](C)[C@@H](O[C@H]2C[C@@](C)(OC)[C@@H](O)[C@H](C)O2)[C@H](C)[C@@H](O[C@@H]2O[C@H](C)C[C@H](N(C)C)[C@H]2O)[C@](C)(O)C[C@@H](C)CN(C)[C@H](C)[C@@H](O)[C@]1(C)O` [AZITHROMYCIN], in test [2], the minimal inhibitory concentration (MIC) amounted to 0.001 µg/mL (≈ 0.00134 µM), the MIC50 was determined as 0.001 µg/mL (≈ 0.00134 µM) and the MIC90 turned out to be 0.016 µg/mL (≈ 0.0214 µM).
In test [1], `O=C(O)c1cn(C2CC2)c2cc(N3CCNCC3)c(F)cc2c1=O` [CIPROFLOXACIN] had an MIC50 of 1 µg/mL (≈ 3.02 µM) and an MIC90 of 1 µg/mL (≈ 3.02 µM). In test [2], this compound registered an MIC50 of 4 µg/mL (≈ 12.1 µM) and an MIC90 of 4 µg/mL (≈ 12.1 µM).
As to `CCC[C@@H]1C[C@@H](C(=O)N[C@@H]([C@H]2O[C@H](SC)[C@H](O)[C@@H](O)[C@H]2O)[C@H](C)Cl)N(C)C1` [CLINDAMYCIN], in test [1], the MIC50 was determined as 0.032 µg/mL (≈ 0.0753 µM) and the MIC90 was 0.032 µg/mL (≈ 0.0753 µM).
As to `C[C@H]1c2cccc(O)c2C(=O)C2=C(O)[C@]3(O)C(=O)C(C(N)=O)=C(O)[C@@H](N(C)C)[C@@H]3[C@@H](O)[C@@H]21.O` [DOXYCYCLINE], the MIC50 in test [1] came to 2 µg/mL; in test [2], 0.25 µg/mL. The results for the MIC90 in test [1] and in test [2] were 2 µg/mL and 0.25 µg/mL, respectively.
On to `COc1c(N2CCNC(C)C2)c(F)cc2c(=O)c(C(=O)O)cn(C3CC3)c12` (stereo not given) [GATIFLOXACIN], for which, in test [1], the MIC50 was determined as 0.125 µg/mL (≈ 0.333 µM) and the MIC90 was 0.125 µg/mL (≈ 0.333 µM). Moreover, in test [2], the MIC50 was 0.125 µg/mL (≈ 0.333 µM) and the MIC90 was 0.125 µg/mL (≈ 0.333 µM).
Turning to `CO/N=C1\CN(c2nc3c(cc2F)c(=O)c(C(=O)O)cn3C2CC2)CC1CN` (stereo not given) [GEMIFLOXACIN], in test [2], the MIC50 is 0.032 µg/mL (≈ 0.0822 µM) and the MIC90 is 0.125 µg/mL (≈ 0.321 µM).
As for `C[C@H]1COc2c(N3CCN(C)CC3)c(F)cc3c(=O)c(C(=O)O)cn1c23.C[C@H]1COc2c(N3CCN(C)CC3)c(F)cc3c(=O)c(C(=O)O)cn1c23.O` [LEVOFLOXACIN], in test [1], the MIC was determined as 0.1 µg/mL, the MIC50 worked out at 0.25 µg/mL and the MIC90 came out at 0.5 µg/mL. Also, in test [2], it took 0.012 µg/mL to inhibit growth (MIC), the MIC50 is 1 µg/mL and the MIC90 was 1 µg/mL.
Take `COc1c(N2C[C@@H]3CCCN[C@@H]3C2)c(F)cc2c(=O)c(C(=O)O)cn(C3CC3)c12` [MOXIFLOXACIN]: in test [1], the lowest concentration to inhibit growth (MIC) was 0.063 µg/mL (≈ 0.157 µM), the MIC50 is 0.06 µg/mL (≈ 0.149 µM) and the MIC90 was found to be 0.06 µg/mL (≈ 0.149 µM). In test [2], the MIC is 0.06 µg/mL (≈ 0.149 µM), the MIC50 turned out to be 0.06 µg/mL (≈ 0.149 µM) and the MIC90 amounted to 0.12 µg/mL (≈ 0.299 µM).
With `CN(C)[C@@H]1C(O)=C(C(N)=O)C(=O)[C@@]2(O)C(O)=C3C(=O)c4c(O)cccc4[C@@](C)(O)[C@H]3C[C@@H]12` [TETRACYCLINE], in test [1], the MIC50 came to 8 µg/mL (≈ 18 µM) and the MIC90 stood at 8 µg/mL (≈ 18 µM). Besides, in test [2], the MIC50 was found to be 1 µg/mL (≈ 2.25 µM) and the MIC90 is 1 µg/mL (≈ 2.25 µM).
